EP0282292B1, “Improved chelator for anaerobic sealants” (LOCTITE (IRELAND) Ltd., priority 1987, dated 1988)
Like-named read-outs stand apart in the source and are kept apart here.

Tests used:
[1] = Stability at 82°C (time to first gellation) of curable formulation spiked with copper; details: for level of chelator able to counteract added copper: 0.5 ppm of added copper; for stability (time to first gellation): 82°C, spiked with copper after one week at room temperature, supernatant only
[2] = anaerobic sealant formulation with acidic components

SMILES	level of chelator able to counteract added copper [1] [ppm]	stability (time to first gellation) [1]	time to precipitation from solution after addition [2] [h]	chelator concentration, Sampled after 0.5hr. standing-supernatant liquid taken (1% Maleic Acid in PEGMA) [ppm]	chelator concentration, Stirred 0.5hr. mixture sampled (1% Maleic Acid in PEGMA) [ppm]	chelator concentration, supernatant after 4 days standing (1% Maleic Acid in PEGMA) [ppm]	chelator concentration, supernatant after 5 days standing (1% Maleic Acid in PEGMA) [ppm]	chelator concentration, Sampled after 0.5hr. standing-supernatant liquid taken (3% Saccharin in PEGMA) [ppm]	chelator concentration, Stirred 0.5hr. mixture sampled (3% Saccharin in PEGMA) [ppm]	chelator concentration, supernatant after 4 days standing (3% Saccharin in PEGMA) [ppm]	chelator concentration, supernatant after 5 days standing (3% Saccharin in PEGMA) [ppm]
CC(O)CN(CCN(CC(C)O)CC(C)O)CC(C)O (stereo not shown) [EDTPA, tetrakis-(2-hydroxy-propyl)-ethylenediamine]	300	no loss of chelation efficiency on aging	–	–	–	–	–	–	–	–	–
O=C([O-])CN(CCN(CC(=O)[O-])CC(=O)[O-])CC(=O)[O-].[Na+].[Na+].[Na+].[Na+] [EDTA Na₄, ethylenediaminetetraacetic acid tetrasodium salt]	–	–	≤ 24	–	–	–	–	–	–	–	–
O=C([O-])CN(CCO)CCN(CC(=O)[O-])CC(=O)[O-].[Na+].[Na+].[Na+] [HEDTA Na₃, N-hydroxyethylenediaminetriacetic acid trisodium salt]	300	no loss of chelation efficiency on aging	–	110	826	175	180	65	904	69	75
